Measurements from US20030217372A1, “Methods of using alpha 1b-adrenergic receptors” (priority 2002, published 2003).
Counter-ions that a name gives are not always drawn.

Legend:
α1b-ARs = target: T1, α1b-ARs (Mus musculus, UniProt P97717); assay: Prazosin effect on locomotor responses to D-amphetamine, cocaine and morphine; assay type: in vivo, mice; conditions: prazosin 1 mg/kg i.p. pre-treatment
T1 construct: endogenous in cells; host or cells: living adult male WT mice (129/Sv x C57BL/6J mixed background), in vivo; α1b-AR KO mice as comparison
T1 sequence (P97717 1-514): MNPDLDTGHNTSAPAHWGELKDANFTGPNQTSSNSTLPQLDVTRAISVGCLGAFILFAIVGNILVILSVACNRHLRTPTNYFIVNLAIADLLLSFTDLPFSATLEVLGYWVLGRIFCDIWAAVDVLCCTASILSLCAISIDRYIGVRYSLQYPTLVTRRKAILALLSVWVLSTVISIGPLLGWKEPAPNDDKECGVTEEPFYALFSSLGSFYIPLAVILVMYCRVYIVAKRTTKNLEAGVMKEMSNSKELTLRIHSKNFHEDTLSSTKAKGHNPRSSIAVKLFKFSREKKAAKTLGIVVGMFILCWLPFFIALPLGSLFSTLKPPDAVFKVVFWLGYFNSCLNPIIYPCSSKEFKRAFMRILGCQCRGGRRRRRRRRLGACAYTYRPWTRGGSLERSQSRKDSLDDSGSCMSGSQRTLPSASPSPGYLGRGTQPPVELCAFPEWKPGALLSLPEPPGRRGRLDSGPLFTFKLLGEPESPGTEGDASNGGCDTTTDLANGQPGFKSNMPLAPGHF
Procedure: Animals were placed in the experimental apparatus for 150 minutes, received two saline injections after 60 minutes and 90 minutes spent in the corridor. On the following day, animals were placed in the experimental apparatus for 60 minutes, they received an intrapenitoneal injection of either saline or prazosin (1 mg/kg) and were replaced in the corridor for 30 minutes. […] Independent groups of animals were used for each treatment to avoid eventual behavioral sensitization (N=6-12 per group).
Mice were introduced in a circular corridor (4.5 cm width, 17 cm external diameter) crossed by four infrared beams (1.5 cm above the base) placed at every 90° (Imetronic, Pessac, France). The locomotor activity was counted when animals interrupted two successive beams and, thus, had traveled ¼ of the circular corridor. […] Their activity was recorded for an additional 60 minutes or 120 minutes period. The first session was a session of habituation to the experimental procedure during which animals received saline (˜3 ml/kg, i.p.). The locomotor response to a drug administration was measured on the following day. Tests were performed between 12:00 and 6:00 p.m. in stable conditions of temperature and humidity.

α1-adrenergic receptors = conditions: cited from earlier work
WT and α1b-AR KO mice [1] = assay: Locomotor activity in circular corridor after acute drug injection; assay type: in vivo; conditions: for amplitude of locomotor response, α1b-AR KO vs WT mice: D-amphetamine 2 and 3 mg/kg, cocaine and morphine independent of dose
Procedure: FIG. 2 is a series of dose response graphs that depicts the results of locomotor response to novelty, saline, scopolamine and chloro-APB experiments in WT and α1b-AR KO mice. […] Animals were placed in the experimental apparatus for 90 minutes, received a saline injection and were replaced in the apparatus for 60 minutes. On the following day, animals were placed in the experimental apparatus for 90 minutes, they received an intraperitoneal injection of either saline or scopolamine (1 mg/kg) and their locomotor response was measured every 5 minutes for 60 minutes. FIG. 2D represents the results of locomotor response to chloro-APB; animals were placed in the experimental apparatus for 90 minutes, received a saline injection and were replaced in the apparatus for 60 minutes. On the following days, animals were placed in the experimental apparatus for 90 minutes, they received an intraperitoneal injection of chioro-APB and their locomotor response was measured every 5 minutes for 60 minutes. Several doses of chloro-APB were tested on consecutive days in a random order.
Independent groups of animals were used for each treatment to avoid eventual behavioral sensitization (N=6-16 per group).
(§1) Mice were introduced in a circular corridor (4.5 cm width, 17 cm external diameter) crossed by four infrared beams (1.5 cm above the base) placed at every 90° (Imetronic, Pessac, France). The locomotor activity was counted when animals interrupted two successive beams and, thus, had traveled ¼ of the circular corridor. In each session, the spontaneous activity was recorded for 90 minutes, before mice received either saline or drugs. Their activity was recorded for an additional 60 minutes or 120 minutes period. The first session was a session of habituation to the experimental procedure during which animals received saline (˜3 ml/kg, i.p.). The locomotor response to a drug administration was measured on the following day. Tests were performed between 12:00 and 6:00 p.m. in stable conditions of temperature and humidity.

WT and α1b-AR KO mice [2] = assay: Oral consumption, two-bottle choice paradigm; assay type: in vivo; conditions: cocaine 0.2 mg/ml, morphine 0.15 mg/ml
Procedure: Fluid intake was measured daily by weighting bottles, mice being housed individually. Tested solutions were replaced twice weekly.
Cocaine and morphine: For two weeks, bottles were filled with cocaine or morphine solution of decreasing concentration (one dose per week; 0.3 mg/ml then 0.2 mg/ml for cocaine and 0.2 mg/ml and 0.15 mg/ml for morphine) instead of water, so that mice accustom to the bitter taste. […] Then, to determine mean water consumption and eliminate basal side preference, two bottles of water were given for three days to each animal and basal consumption was calculated as the mean consumption from one bottle on day 2 and the other on day 3. Preference for cocaine (0.2 mg/ml) or morphine (0.15 mg/ml) was then measured over two 12-day sessions, drug and water sides being exchanged between the 2 sessions. Means of drug and water consumptions were estimated for the last 5 days of both 12-day periods.
Rewarding properties of cocaine and morphine were assessed in a two-bottle choice paradigm adapted from the method described by Ferraro et al. (Ferraro et al., Pharmacol. Biochem. Behav. 66:397-401, 2000) for cocaine and Borg and Taylor (Borg et al., Biochem. Behav. 47:633-46, 1994) for morphine.

WT and α1b-AR KO mice [3] = assay: Locomotor sensitization induced by repeated drug administration; assay type: in vivo
Procedure: Animals spent 90 minutes in the experimental apparatus, received a saline injection and were replaced in the apparatus for 60 minutes. […] Four similar sessions took place every other day. The sixth session took place after a 10-day withdrawal. Locomotor responses measured during the first hour following each injection are presented in function of the number of injections and slope values. N=6 to 15 animals per group.
N=6 to 12 animals per group. […] FIG. 6B represents the time course of the locomotor responses measured every 5 minutes.
as §1
Data were analyzed with Student's t-test or analysis of variance. For behavioral sensitization experiments, correlation between the number of drug injections and the amplitude of the locomotor responses was analyzed with linear regression and the influence of genotype on this correlation with an analysis of covariance. Genotype and prazosin treatments were between-subjects factors. […] Differences were considered significant when p<0.05.
The rate of sensitization was evaluated by determining the slope of the “number of injections/response” curve (FIG. 5).

WT and α1b-AR KO mice [4] = assay: Morphine-induced conditioned place preference (Y maze); assay type: in vivo; conditions: for conditioned place preference (CPP): morphine 5 mg/kg s.c.; for locomotor activity during conditioning sessions, morphine vs saline: repeated morphine 5 mg/kg s.c.
Procedure: FIG. 8 is a series of histograms and dose response graphs that represents the results of a conditioned place preference experiment induced by morphine in WT and α1b-AR KO mice. WT and α1b-AR KO mice were conditioned to receive morphine (5 mg/kg s.c.) in a compartment and a saline injection in the other compartment. The saline group received saline injections in both compartments. N=6 to 11 animals per group. The upper left graph show the time spent in the morphine-associated compartment before conditioning (pre-test), after four morphine injections and four saline injections (post-test 1) and after two supplementary morphine and two supplementary saline injections (post-test 2). *p<0.05 and **p<0.01 when time spent in the drug compartment was different between pretest and post-test 1 or 2 (paired Student's t-test). The upper right graph show scores that correspond to the time spent in the morphine compartment during the post-test (1 and 2) minus time spent in the morphine compartment during the pre-test. p<0.05 when scores were higher for morphine treated mice than for saline treated mice (unpaired Student's t-test). The lower left and lower right graphs show the locomotor activity measured during the 30 minutes of each of the 12 conditioning sessions corresponding either to morphine or to saline injection. ***p<0.001 locomotor activity measured during the morphine session was higher than during the corresponding saline session (paired Student's t-test).
Conditioned place preference was measured in a Y maze. Mice were habituated to the experimental apparatus (Imetronic, Pessac, France) for 3 days (1 hour of exploration of the maze with neutral cues, i.e. smooth gray walls and floor). On the following day, animals were allowed to freely explore the two compartments (with different visual and tactile cues) of the maze for 20 minutes corresponding to a pre-conditioning test. The total amount of time spent in each compartment was recorded and analyzed as previously described (Valverde et al., Psychopharmacology (Berlin) 123:119-26, 1996). For the next […] corresponding to the conditioning session, mice alternatively received morphine (5 mg/kg; s.c.) in one compartment and saline in the other compartment the following day. According to the unbiased method, morphine was equally associated to both compartments and was given either first or second, mice being confined in one compartment for the 30 minutes following each injection. One day after the end of the conditioning session, mice were submitted to a post-conditioning test identical to the test performed before conditioning, i.e. each mice being allowed to explore both compartments for 20 minutes. […] Locomotor activities were recorded with electronic cells in each conditioning session.

[5] = α1b-AR KO mice, i.p., different doses

COc1cc2nc(N3CCN(C(=O)c4ccco4)CC3)nc(N)c2cc1OC [prazosin]
effect on locomotor response to D-amphetamine (α1b-ARs; WT mice, D-amphetamine 3 mg/kg): significantly reduced
effect on locomotor response to cocaine (α1b-ARs; WT mice, cocaine 20 mg/kg): significantly reduced
effect on locomotor response to morphine (α1b-ARs; WT mice, morphine 10 mg/kg): significantly reduced
effect on locomotor responses to D-amphetamine, cocaine and morphine (α1b-ARs; α1b-AR KO mice): failed to modify
behavioral sensitization with prazosin co-administered with repeated cocaine or D-amphetamine injections (α1-adrenergic receptors; background statement): no behavioral sensitization is observed
locomotor hyperactivity induced by D-amphetamine, cocaine, GBR12783 and morphine (α1-adrenergic receptors; background statement): completely inhibits
D-amphetamine-induced locomotor hyperactivity and extracellular DA responses in the nucleus accumbens (α1-adrenergic receptors; rats, Darracq et al. 1998): inhibits D-amphetamine-induced locomotor hyperactivity without modifying extracellular DA responses

Br.C=CCN1CCc2c(cc(O)c(O)c2Cl)C(c2ccccc2)C1 (stereo not shown) [chloro-APB, chloro-APB hydrobromide]
locomotor activity (WT and α1b-AR KO mice [1]; WT mice, chloro-APB i.p., several doses): dose-dependently increase locomotor activity
amplitudes of locomotor responses, WT vs α1b-AR KO mice (WT and α1b-AR KO mice [1]; chloro-APB i.p., several doses): No significant differences

CN1[C@@H]2C[C@@H](OC(=O)[C@H](CO)c3ccccc3)C[C@H]1[C@@H]1O[C@@H]12 [scopolamine, scopolamine hydrobromide]
stimulatory effect on locomotor activity, WT vs α1b-AR KO mice (WT and α1b-AR KO mice [1]; scopolamine 1 mg/kg i.p., 60 minutes): equivalent

COC(=O)[C@H]1[C@@H](OC(=O)c2ccccc2)C[C@@H]2CC[C@H]1N2C.Cl [cocaine, cocaine hydrochloride]
drug consumption vs water in two-bottle choice (rewarding properties) (WT and α1b-AR KO mice [2]; KO mice): aversion
drug consumption vs water in two-bottle choice (rewarding properties) (WT and α1b-AR KO mice [2]; WT mice): exhibited a preference
locomotor responses of drug-treated vs naive mice (WT and α1b-AR KO mice [3]; KO mice, cocaine 5 mg/kg, 5 previous drug injections): no significant difference
rate of sensitization: slope of the number of injections/response curve (WT and α1b-AR KO mice [3]; WT mice, cocaine 5 mg/kg): 101.0±47.4
rate of sensitization: slope of the number of injections/response curve (WT and α1b-AR KO mice [3]; WT mice, cocaine 15 mg/kg): 198.2±48.19
rate of sensitization: slope of the number of injections/response curve (WT and α1b-AR KO mice [3]; α1b-AR KO mice, cocaine 5 mg/kg): −0.155±20.96
rate of sensitization: slope of the number of injections/response curve (WT and α1b-AR KO mice [3]; α1b-AR KO mice, cocaine 15 mg/kg): 102.8±19.37
amplitude of locomotor response, α1b-AR KO vs WT mice (WT and α1b-AR KO mice [1]): significantly altered by the genotype
locomotor activity (WT and α1b-AR KO mice [1]; WT mice, i.p., different doses): dose-dependent stimulation of locomotor activity
locomotor activity (WT and α1b-AR KO mice [1]; [5]): also increased locomotor activity

CN1CC[C@]23c4c5ccc(O)c4O[C@H]2[C@@H](O)C=C[C@H]3[C@H]1C5 [morphine, morphine chiorhydrate]
drug consumption vs water in two-bottle choice (rewarding properties) (WT and α1b-AR KO mice [2]; KO mice): aversion
conditioned place preference (CPP) (WT and α1b-AR KO mice [4]; KO mice): not in KO mice
locomotor activity during conditioning sessions, morphine vs saline (WT and α1b-AR KO mice [4]; KO mice): no significant difference
conditioned place preference (CPP) (WT and α1b-AR KO mice [4]; WT mice): significant CPP was induced
locomotor activity during conditioning sessions, morphine vs saline (WT and α1b-AR KO mice [4]; WT mice): induce a behavioral sensitization in WT
rate of sensitization: slope of the number of injections/response curve (WT and α1b-AR KO mice [3]; WT mice, morphine 7.5 mg/kg): 146.7±51.4
rate of sensitization: slope of the number of injections/response curve (WT and α1b-AR KO mice [3]; α1b-AR KO mice, morphine 7.5 mg/kg): 38.17±19.48
amplitude of locomotor response, α1b-AR KO vs WT mice (WT and α1b-AR KO mice [1]): significantly altered by the genotype
stereotyped walking behavior (WT and α1b-AR KO mice [1]; KO mice): induced a stereotyped walking behavior
locomotor activity (WT and α1b-AR KO mice [1]; WT mice, i.p., different doses): dose-dependent stimulation of locomotor activity
locomotor activity (WT and α1b-AR KO mice [1]; [5]): also increased locomotor activity
